The values below come from US20090137499A1, “BENZYLPHENYL GLUCOPYRANOSIDE DERIVATIVE” (priority 2006, published 2009).

The assay addresses T1, human SGLT1 (Homo sapiens, UniProt P13866).
T1 construct: expressed in transfected cells
T1 sequence (P13866 1-664): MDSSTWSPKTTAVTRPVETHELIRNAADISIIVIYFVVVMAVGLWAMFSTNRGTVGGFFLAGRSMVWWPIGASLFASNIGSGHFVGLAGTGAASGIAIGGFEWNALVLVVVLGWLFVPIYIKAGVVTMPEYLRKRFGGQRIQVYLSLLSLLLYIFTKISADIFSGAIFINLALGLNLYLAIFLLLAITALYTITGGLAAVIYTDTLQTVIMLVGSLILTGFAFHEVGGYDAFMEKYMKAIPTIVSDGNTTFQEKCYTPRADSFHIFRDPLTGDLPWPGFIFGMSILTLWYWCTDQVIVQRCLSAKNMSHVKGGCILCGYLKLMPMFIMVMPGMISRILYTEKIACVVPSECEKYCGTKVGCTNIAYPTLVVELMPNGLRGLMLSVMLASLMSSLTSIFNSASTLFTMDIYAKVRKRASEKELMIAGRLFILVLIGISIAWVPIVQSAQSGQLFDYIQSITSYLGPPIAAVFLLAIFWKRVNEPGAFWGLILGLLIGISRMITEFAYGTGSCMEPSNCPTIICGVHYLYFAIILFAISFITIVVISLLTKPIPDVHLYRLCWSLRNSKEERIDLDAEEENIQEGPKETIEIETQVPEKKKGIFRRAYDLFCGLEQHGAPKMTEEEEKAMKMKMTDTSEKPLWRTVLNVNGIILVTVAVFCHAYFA
Description: Determination of SGLT1 inhibiting activity using human SGLT1 expressing cell ([14C]-α-methyl-D-glucopyranoside uptake). It is filed as cell-based. The conditions noted are these: HEK-SGLT1 cells, 1 mM [14C]-α-methyl-D-glucopyranoside, 37° C., 30 min. The protocol: Determination of SGLT1 Inhibiting Activity Using Human SGLT1 Expressing Cell
1) Preparation of Vector Expressing Human SGLT1 cDNA in Animal Cell
Amplification was performed by PCR using human SGLT1 cDNA clone (Origene: Clone Number, TC119918; GenBank accession number, NM 000343) as a template. The sense oligonucleotide primer for PCR was 5′-[…]-3′ (Primer 1: SEQ ID NO: 1 in the sequence listing),
and the antisense oligonucleotide primer was 5′-[…]-3′ (Primer 2: SEQ ID NO: 2 in the sequence listing).
The PCR product was subjected to agarose electrophoresis, then a target DNA fragment was recovered from a single band corresponding to 2013 bases, digested with restriction enzymes HindIII and XhoI, and introduced into the HindIII/XhoI site of vector pCMV-Script (Stratagene) to obtain SGLT1 expressing plasmid pCMV-SGLT1. A HindIII/XhoI fragment was excised from pCMV-SGLT1 and introduced into the BamHI/XhoI site of pENTR1A (Gateway, Invitrogen) to prepare pENTR-SGLT1. Retrovirus vector pLPCX (Clontech) into which Gateway Vector Conversion System Cassette A (Invitrogen) was introduced was used as the destination plasmid to prepare SGLT1 expressing retrovirus vector pLPCX-SGLT1.
2) Establishment of Human SGLT1 Expressing Cell
The retrovirus pLPCX-SGLT1 obtained in 1) was transfected into integrin αvβ3 expressing HEK-293 cells and, the cells were treated with antibiotic G418 (brand name, Geneticin: Invitrogen) and puromycin (Clontech) to obtain HEK-SGLT1 cells stably expressing the target vector having resistance. The stably expressing cells were cultured and maintained in DMEM medium containing […] G418, […] puromycin, 3 mM KGT-1075, and 10% FBS.
3) Determination of SGLT1 Inhibiting Activity
HEK-SGLT1 cells were suspended at a density of 10^6 cells/mL in DMEM medium containing […] G418, 1 mg/ml puromycin, and 10% FBS, and 100 μL was seeded in each well of a type 1 collagen-coated 96-well culture plate (Corning). On the following day, the medium was replaced with a sugar uptake buffer (10 mM HEPES [pH 7.5], 5 mM Tris-HCl [pH 7.5], 140 mM NaCl, 2 mM KCl, 1 mM CaCl2, 1 mM MgCl2), and the cells were cultured with 1 mM [^14C]-α-methyl-D-glucopyranoside (0.1 mCi) and the test compound at 37° C. for 30 min and then washed 3 times with a washing buffer (10 mM HEPES [pH 7.5], 5 mM Tris-HCl [pH 7.5], 140 mM choline chloride, 2 mM KCl, 1 mM CaCl2, 1 mM MgCl2). 100 μL of liquid scintillation cocktail (brand name, Supermix: Perkin-Elmer) was added to each well of the 96-well plate and stirred for 10 min, and then radioactivity was determined with micro β (Perkin-Elmer), a type of liquid scintillation counter. The value as the sugar uptake activity was obtained by deducting the radioactivity in the presence of an excess amount of an SGLT1 inhibiting compound as the background from each measured value, the inhibition rate (%) was calculated from the control sugar uptake activity obtained without using a test compound and the sugar uptake activity obtained using a test compound having a predetermined the concentration, and concentrations of the test compound at which the sugar uptake activity was inhibited by 50% were assessed.

By IC50 is commonly meant the concentration that inhibits the measured activity by half. `COc1ccc(Cc2ccc(CO)cc2O[C@@H]2O[C@H]([C@@H](C)O)[C@@H](O)[C@H](O)[C@H]2O)c(F)c1` [Example 82, 2-(2-Fluoro-4-methoxybenzyl)-5-hydroxymethylphenyl 7-deoxy-D-glycero-β-D-gluco-heptopyranoside] gave a half-maximal inhibitory concentration (IC50) of 219 nM.
The value for `COc1ccc(Cc2c(OC)cc(CO)cc2O[C@@H]2O[C@H]([C@@H](C)O)[C@@H](O)[C@H](O)[C@H]2O)cc1` [Example 83, 5-Hydroxymethyl-3-methoxy-2-(4-methoxybenzyl)phenyl 7-deoxy-D-glycero-β-D-gluco-heptopyranoside] was 142 nM; that for `COc1ccc(Cc2c(F)cc(CO)cc2O[C@@H]2O[C@H]([C@@H](C)O)[C@@H](O)[C@H](O)[C@H]2O)cc1` [Example 84, 3-Fluoro-5-hydroxymethyl-2-(4-methoxybenzyl)phenyl 7-deoxy-D-glycero-β-D-gluco-heptopyranoside] was 31 nM; that for `C[C@@H](O)[C@H]1O[C@@H](Oc2cc(CO)cc(F)c2Cc2ccc(C3CC3)cc2)[C@H](O)[C@@H](O)[C@@H]1O` [Example 88, 2-(4-Cyclopropylbenzyl)-3-fluoro-5-hydroxymethylphenyl 7-deoxy-D-glycero-β-D-gluco-heptopyranoside] was 51 nM.
For the compound `CCc1ccc(Cc2c(C)cc(CO)cc2O[C@@H]2O[C@H]([C@@H](C)O)[C@@H](O)[C@H](O)[C@H]2O)cc1` [Example 89, 2-(4-Ethylbenzyl)-5-hydroxymethyl-3-methylphenyl 7-deoxy-D-glycero-β-D-gluco-heptopyranoside], the IC50 was determined as 81 nM.
In turn, `CCOc1ccc(Cc2ccc(CO)cc2O[C@@H]2O[C@H]([C@@H](C)O)[C@@H](O)[C@H](O)[C@H]2O)cc1` [Example 93, 2-(4-Ethoxybenzyl)-5-hydroxymethylphenyl 7-deoxy-D-glycero-β-D-gluco-heptapyranoside] yielded an IC50 of 430 nM.
Next, `COc1ccc(Cc2c(C)cc(CO)cc2O[C@@H]2O[C@H]([C@@H](C)O)[C@@H](O)[C@H](O)[C@H]2O)cc1` [Example 94, 5-Hydroxymethyl-2-(4-methoxybenzyl)-3-methylphenyl 7-deoxy-D-glycero-β-D-gluco-heptopyranoside]: 37 nM; `C[C@@H](O)[C@H]1O[C@@H](Oc2cc(CO)cc(Cl)c2Cc2ccc(OC3CC3)cc2)[C@H](O)[C@@H](O)[C@@H]1O` [Example 95, 3-Chloro-2-(4-cyclopropoxybenzyl)-5-hydroxymethyl-phenyl 7-deoxy-D-glycero-β-D-gluco-heptopyranoside]: 82 nM.
In the case of `Cc1cc(CO)cc(O[C@@H]2O[C@H]([C@@H](C)O)[C@@H](O)[C@H](O)[C@H]2O)c1Cc1ccc(OC2CC2)cc1` [Example 96, 2-(4-Cyclopropoxybenzyl)-5-hydroxymethyl-3-methyl-phenyl 7-deoxy-D-glycero-β-D-gluco-heptopyranoside], 77 nM corresponded to half-maximal inhibition (IC50).
Compound `Cc1ccc(Cc2c(F)cc(CO)cc2O[C@@H]2O[C@H]([C@@H](C)O)[C@@H](O)[C@H](O)[C@H]2O)cc1` [Example 97, 3-Fluoro-5-hydroxymethyl-2-(4-methylbenzyl)phenyl 7-deoxy-D-glycero-β-D-gluco-heptopyranoside] showed an IC50 of 52 nM.
In turn, `Cc1ccc(Cc2ccc(CO)cc2O[C@@H]2O[C@H]([C@@H](C)O)[C@@H](O)[C@H](O)[C@H]2O)cc1` [Example 98, 5-Hydroxymethyl-2-(4-methylbenzyl)phenyl 7-deoxy-D-glycero-β-D-gluco-heptapyranoside] returned an IC50 of 180 nM. This IC50 lies about 3.5-fold higher than the previous one.
Compound `C=Cc1cc(CO)cc(O[C@@H]2O[C@H]([C@@H](C)O)[C@@H](O)[C@H](O)[C@H]2O)c1Cc1ccc(OC)cc1` [Example 101, 5-Hydroxymethyl-2-(4-methoxybenzyl)-3-vinyl-phenyl 7-deoxy-D-glycero-β-D-gluco-heptopyranoside] came in with an IC50 of 168 nM.
